Assay results from ChEMBL document CHEMBL1201862, “PubChem BioAssay data set” (2004).
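96-well plates; 48 h exposure; 5 concentrations. Endpoints by linear interpolation between flanking doses. Not reached: highest tested concentration assigned. GI50 marks 50% less growth.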 The source made the active and inactive calls. Cut-off read from the data, not from the text of the source: active = GI50 up to about 1.1 µM and inactive = higher.

Key:
Test in all cases: inhibition of tumour cell growth, NCI panel, 48 h
[1] = system: UACC-62
[2] = system: OVCAR-8
[3] = system: SF-268
[4] = system: EKVX
[5] = system: SK-OV-3
[6] = system: KM12
[7] = system: MCF7
[8] = system: Malme-3M
[9] = system: M14
[10] = system: OVCAR-5
[11] = system: SN12C
[12] = system: NCI-H226
[13] = system: SK-MEL-5
[14] = system: MDA-N
[15] = system: OVCAR-3
[16] = system: SK-MEL-28
[17] = system: LOX IMVI
[18] = system: A549
[19] = system: HCT-116
[20] = system: 786-0

Measured: GI50

CC(C)Oc1cccc(N2C(NCc3c[nH]c4ccccc34)=Nc3ccncc3S2(=O)=O)c1
inactive: [1] 11.9 µM | [2] 29.9 µM | [3] 32.2 µM | [4] 23.1 µM | [5] 33.2 µM | [6] 33.3 µM | [7] 18.4 µM | [8] 20.5 µM | [9] 21 µM | [10] 47.8 µM | [11] 39.5 µM | [12] 45.4 µM | [13] 13.9 µM | [14] 31.6 µM | [15] 12.9 µM | [16] 45.8 µM | [17] 26.9 µM | [18] 20.4 µM | [19] 27.7 µM | [20] 30.3 µM

O=C(c1ccc(Cl)cc1)N(Cc1cccnc1)C(=S)N(Cc1cccnc1)C(=O)c1ccc(Cl)cc1
inactive: [1] 24.3 µM | [2] 29.6 µM | [3] 28.3 µM | [4] 50.8 µM | [5] > 100 µM | [6] 35.4 µM | [7] 29.7 µM | [8] 51.2 µM | [9] 22.7 µM | [10] 36.7 µM | [11] 18.6 µM | [12] 43.5 µM | [13] 27.5 µM | [14] 22.2 µM | [15] 34 µM | [16] 37.8 µM | [17] 22 µM | [18] 99.5 µM | [19] 27.1 µM | [20] 21.1 µM

Clc1ccc(-c2nnc(-c3cccc4ccccc34)o2)cc1Cl
inactive: [1] > 100 µM | [2] > 100 µM | [3] > 100 µM | [4] > 100 µM | [5] > 100 µM | [6] > 100 µM | [7] > 100 µM | [8] > 100 µM | [9] > 100 µM | [10] > 100 µM | [11] > 100 µM | [12] > 100 µM | [13] > 100 µM | [14] > 100 µM | [15] > 100 µM | [16] > 100 µM | [17] > 100 µM | [18] > 100 µM | [19] > 100 µM | [20] > 100 µM

CCCCCCCCCCCCCCCCSS(C)(=O)=O
inactive: [1] 22.4 µM | [2] 29.4 µM | [3] 10.7 µM | [4] > 91.2 µM | [5] 97.9 µM | [6] > 100 µM | [7] 27.6 µM | [8] 7.45 µM | [9] 9.42 µM | [10] > 91 µM | [11] 37.8 µM | [12] > 27.6 µM | [13] 32.8 µM | [14] 14.8 µM | [15] 10.9 µM | [16] 11.9 µM | [17] 3.73 µM | [18] > 65.3 µM | [19] 10.6 µM | [20] 7.06 µM

FC(F)(F)c1ccc2c(-c3cc[nH]c3)ccnc2c1
inactive: [1] > 100 µM | [2] 34.1 µM | [3] > 10 µM | [4] 33 µM | [5] > 100 µM | [6] 31.8 µM | [7] 30.8 µM | [8] 24.5 µM | [9] 34.5 µM | [10] 44.9 µM | [11] 41 µM | [12] 36.9 µM | [13] 20.7 µM | [14] 32.3 µM | [15] 27.4 µM | [16] 35.6 µM | [17] 19.4 µM | [18] 26 µM | [19] 32.5 µM | [20] 17.7 µM

CCCCCCCCC/C=C/C=C/C(=O)NCC(=O)NC1C(O)C(O)C(Nc2ncnc3[nH]cnc23)OC1C(O)CO (stereo not given)
active: [1] 0.00507 µM | [2] 0.00413 µM | [3] 0.0143 µM | [4] 0.126 µM | [5] 0.001 µM | [6] 0.00263 µM | [7] 0.668 µM | [8] 0.00242 µM | [9] 0.0046 µM | [10] 0.00174 µM | [11] 0.0136 µM | [12] 0.00133 µM | [13] 0.0137 µM | [14] 0.0306 µM | [15] 0.000601 µM | [16] 0.0695 µM | [17] 0.00234 µM | [18] 0.00397 µM | [19] 0.00323 µM | [20] 0.00217 µM

NC(=O)c1ncn(C2C=CC(CP(=O)(O)O)C2)c1N (stereo not given)
inactive: [1] > 100 µM | [2] > 100 µM | [3] > 100 µM | [4] > 100 µM | [5] > 100 µM | [6] > 100 µM | [7] > 100 µM | [8] > 100 µM | [9] > 100 µM | [10] > 100 µM | [11] > 100 µM | [12] > 100 µM | [13] > 100 µM | [14] > 100 µM | [15] > 100 µM | [16] > 100 µM | [17] > 100 µM | [18] > 100 µM | [19] > 100 µM | [20] > 100 µM
